Laboratory results published in patent US11053204B2, “Pyrimidinyloxy benzene derivatives as herbicides” (FMC Corporation, priority 2015, dated 2021).

Key:
Assay type in all cases: in vivo
[1] = tested on: barnyardgrass (Echinochloa crus-galli); experiment: Test A preemergence, visual injury rating; settings: Echinochloa crus-galli, pre-emergence, 240 h, 0 to 100 scale (0 no effect, 100 complete control), read-out: Barnyardgrass plant response rating
How it was run: (§1)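 Compounds in non-phytotoxic solvent with surfactant applied as soil spray preemergence, or postemergence to plants 2-10 cm at one- to two-leaf stage, in loam/sand. After approximately 10 days in greenhouse, injury rated visually versus untreated controls, 0 (no effect) to 100 (complete control).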

kochia (Kochia scoparia) [2] = experiment: Test A preemergence, visual injury rating; settings: Bassia scoparia, pre-emergence, 240 h, 0 to 100 scale (0 no effect, 100 complete control), read-out: Kochia plant response rating
How it was run: as §1

[3] = tested on: barnyardgrass (Echinochloa crus-galli); experiment: Test C postemergence, plant response rating; settings: Echinochloa crus-galli, post-emergence
How it was run: (§2)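 Preemergence: seeds sown in loam–sand blend or silt loam and sprayed with test chemicals in a non-phytotoxic surfactant-containing solvent. Postemergence: potted plants at 2–18 cm (1–4-leaf stage) sprayed with the same formulation. After 13–15 d in greenhouse, visual rating versus controls on 0 (no effect) to 100 (complete control) scale.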

[4] = tested on: blackgrass (Alopecurus myosuroides); experiment: Test C postemergence, plant response rating; settings: Alopecurus myosuroides, post-emergence
How it was run: as §2

[5] = tested on: chickweed (common chickweed, Stellaria media); experiment: Test C postemergence, plant response rating; settings: Stellaria media, post-emergence
How it was run: as §2

corn (Zea mays) = experiment: Test C postemergence, plant response rating; settings: Zea mays, post-emergence
How it was run: as §2

[6] = tested on: crabgrass, large (large crabgrass, Digitaria sanguinalis); experiment: Test C postemergence, plant response rating; settings: Digitaria sanguinalis, post-emergence
How it was run: as §2

[7] = tested on: foxtail, giant (giant foxtail, Setaria faberii); experiment: Test C postemergence, plant response rating; settings: Setaria faberi, post-emergence
How it was run: as §2

kochia (Kochia scoparia) [8] = experiment: Test C postemergence, plant response rating; settings: Bassia scoparia, post-emergence
How it was run: as §2

[9] = tested on: lambsquarters (Chenopodium album); experiment: Test C postemergence, plant response rating; settings: Chenopodium album, post-emergence
How it was run: as §2

[10] = tested on: morningglory (Ipomoea coccinea); experiment: Test C postemergence, plant response rating; settings: Ipomoea, post-emergence
How it was run: as §2

[11] = tested on: nutsedge, yellow (yellow nutsedge, Cyperus esculentus); experiment: Test C postemergence, plant response rating; settings: Cyperus, post-emergence
How it was run: as §2

[12] = tested on: oat, wild (wild oat Avena fatua); experiment: Test C postemergence, plant response rating; settings: Avena fatua, post-emergence
How it was run: as §2

[13] = tested on: oilseed rape (Brassica napus); experiment: Test C postemergence, plant response rating; settings: Brassica napus, post-emergence
How it was run: as §2

[14] = tested on: ryegrass, Italian (Italian ryegrass, Lolium multiflorum); experiment: Test C postemergence, plant response rating; settings: Lolium multiflorum, post-emergence
How it was run: as §2

soybean (Glycine max) = experiment: Test C postemergence, plant response rating; settings: Glycine max, post-emergence
How it was run: as §2

[15] = tested on: wheat (winter wheat, Triticum aestivum); experiment: Test C postemergence, plant response rating; settings: Triticum aestivum, post-emergence
How it was run: as §2

[16] = 62 g ai/ha, scale 0 to 100 (0 no effect, 100 complete control)
[17] = 125 g ai/ha, scale 0 to 100 (0 no effect, 100 complete control)

Structure (SMILES): O=C(OCCC(F)(F)F)c1c(Br)cccc1Oc1ncc(Cl)cn1 [Compound 26, 3,3,3-trifluoropropyl 2-bromo-6-[(5-chloro-2-pyrimidinyl)oxy]benzoate]
- pest or weed control at 125 g/ha ([1]; 125 g ai/ha): 100%
- pest or weed control at 500 g/ha ([1]; 500 g ai/ha): 100%
- pest or weed control at 125 g/ha (kochia (Kochia scoparia) [2]; 125 g ai/ha): 100%
- pest or weed control at 500 g/ha (kochia (Kochia scoparia) [2]; 500 g ai/ha): 100%
- pest or weed control at 16 g/ha ([3]; 16 g ai/ha, scale 0 to 100): 10%
- pest or weed control at 31 g/ha ([3]; 31 g ai/ha, scale 0 to 100): 10%
- pest or weed control at 62 g/ha [3, 16]: 20%
- pest or weed control at 125 g/ha [3, 17]: 30%
- pest or weed control at 16 g/ha ([4]; 16 g ai/ha, scale 0 to 100): 10%
- pest or weed control at 31 g/ha ([4]; 31 g ai/ha, scale 0 to 100): 15%
- pest or weed control at 62 g/ha [4, 16]: 15%
- pest or weed control at 125 g/ha [4, 17]: 35%
- pest or weed control at 16 g/ha ([5]; 16 g ai/ha, scale 0 to 100): 55%
- pest or weed control at 31 g/ha ([5]; 31 g ai/ha, scale 0 to 100): 80%
- pest or weed control at 62 g/ha [5, 16]: 85%
- pest or weed control at 125 g/ha [5, 17]: 98%
- Corn plant response rating (crop injury, 0 = no effect, 100 = complete kill) at 16 g/ha (corn (Zea mays); 16 g ai/ha, scale 0 to 100): 20%
- Corn plant response rating (crop injury, 0 = no effect, 100 = complete kill) at 31 g/ha (corn (Zea mays); 31 g ai/ha, scale 0 to 100): 25%
- plant injury at 62 g/ha (corn (Zea mays); [16]): 20%
- plant injury at 125 g/ha (corn (Zea mays); [17]): 25%
- pest or weed control at 16 g/ha ([6]; 16 g ai/ha, scale 0 to 100): 10%
- pest or weed control at 31 g/ha ([6]; 31 g ai/ha, scale 0 to 100): 20%
- pest or weed control at 62 g/ha [6, 16]: 25%
- pest or weed control at 125 g/ha [6, 17]: 65%
- pest or weed control at 16 g/ha ([7]; 16 g ai/ha, scale 0 to 100): 10%
- pest or weed control at 31 g/ha ([7]; 31 g ai/ha, scale 0 to 100): 10%
- pest or weed control at 62 g/ha [7, 16]: 10%
- pest or weed control at 125 g/ha [7, 17]: 25%
- pest or weed control at 16 g/ha (kochia (Kochia scoparia) [8]; 16 g ai/ha, scale 0 to 100): 90%
- pest or weed control at 31 g/ha (kochia (Kochia scoparia) [8]; 31 g ai/ha, scale 0 to 100): 90%
- pest or weed control at 62 g/ha (kochia (Kochia scoparia) [8]; [16]): 90%
- pest or weed control at 125 g/ha (kochia (Kochia scoparia) [8]; [17]): 95%
- pest or weed control at 16 g/ha ([9]; 16 g ai/ha, scale 0 to 100): 75%
- pest or weed control at 31 g/ha ([9]; 31 g ai/ha, scale 0 to 100): 90%
- pest or weed control at 62 g/ha [9, 16]: 98%
- pest or weed control at 125 g/ha [9, 17]: 98%
- pest or weed control at 16 g/ha ([10]; 16 g ai/ha, scale 0 to 100): 65%
- pest or weed control at 31 g/ha ([10]; 31 g ai/ha, scale 0 to 100): 60%
- pest or weed control at 62 g/ha [10, 16]: 65%
- pest or weed control at 125 g/ha [10, 17]: 85%
- pest or weed control at 16 g/ha ([11]; 16 g ai/ha, scale 0 to 100): 5%
- pest or weed control at 31 g/ha ([11]; 31 g ai/ha, scale 0 to 100): 10%
- pest or weed control at 62 g/ha [11, 16]: 10%
- pest or weed control at 125 g/ha [11, 17]: 10%
- pest or weed control at 16 g/ha ([12]; 16 g ai/ha, scale 0 to 100): 10%
- pest or weed control at 31 g/ha ([12]; 31 g ai/ha, scale 0 to 100): 10%
- pest or weed control at 62 g/ha [12, 16]: 15%
- pest or weed control at 125 g/ha [12, 17]: 35%
- plant injury at 16 g/ha ([13]; 16 g ai/ha, scale 0 to 100): 40%
- plant injury at 31 g/ha ([13]; 31 g ai/ha, scale 0 to 100): 75%
- plant injury at 62 g/ha [13, 16]: 75%
- plant injury at 125 g/ha [13, 17]: 80%
- pest or weed control at 16 g/ha ([14]; 16 g ai/ha, scale 0 to 100): 5%
- pest or weed control at 31 g/ha ([14]; 31 g ai/ha, scale 0 to 100): 5%
- pest or weed control at 62 g/ha [14, 16]: 10%
- pest or weed control at 125 g/ha [14, 17]: 10%
- plant injury at 16 g/ha (soybean (Glycine max); 16 g ai/ha, scale 0 to 100): 65%
- plant injury at 31 g/ha (soybean (Glycine max); 31 g ai/ha, scale 0 to 100): 55%
- plant injury at 62 g/ha (soybean (Glycine max); [16]): 65%
- plant injury at 125 g/ha (soybean (Glycine max); [17]): 75%
- plant injury at 16 g/ha ([15]; 16 g ai/ha, scale 0 to 100): 0%
- plant injury at 31 g/ha ([15]; 31 g ai/ha, scale 0 to 100): 0%
- plant injury at 62 g/ha ([15]; 62 g ai/ha, scale 0 to 100 (0 no effect, 100 complete control), read-out: Wheat plant response rating): 5%
- plant injury at 125 g/ha [15, 17]: 10%
